Tests used:
[1] = target: T1, amyloid β (1-42) (Homo sapiens, UniProt P05067); assay: changes in tension and elasticity of amyloid β (1-42) film measured with a mechanochemical sensor; format: biochemical
T1 construct: Amyloid β (1-42) (Bachem AG, Budendorf, Switzerland); purchased Bachem AG
Description: (§1) Amyloid β (1-42) (Bachem AG, Budendorf, Switzerland) was dissolved in 0.1% ammonia water at the concentration of 1 mg/mL. This solution was sprayed under dry air using an electrospry device described in WO 2002-511792 or an immobilzing device described in Japanese Patent Publication No. 2003-136005. The solution was permeated through a mask with holes of 400 μm in length and 800 μm in width, and then a film having 1 μm thickness was prepared on 1.2% polyvinyl pyrrolidone, using an electrospray method (the EDS method). Then protein was cross-linked by glutaraldehyde.
(§2) The resulting film was placed on an apparatus having a mechanochemical sensor which was described in WO 2002-503332 or U.S. Patent Publication No. 6033913, and it was immersed into 10 mM Hepes pH7.4 buffer solution (hereinafter referred to as “the buffer solution”) containing 0.15 M NaCl. The buffer solution was passed through the film existing on the detecting apparatus at the flow rate of 0.1 to 0.2 mL/min, in order to stabilize the tension of the sample film. Thereafter ZnCl2 solution dissolved in said buffer solution was passed through to detect changes in tension and elasticity (FIG. 1).
In FIG. 1, a place where the line uprises from the horizontal state (i.e. steady state), means a point where tension is given to the sample film, and compliance is detected where the line oscillates. […] It is assumed that the particular interaction referred herein is aggregation of amyloid β (1-42) caused by Zn^2+, when considered with many reports such as X. Huang et. al., (J. Biol. Chem., 1997, 272, 26464), C. S. Atwood et. al., (J. Biol. Chem., 1998, 273, 12817), or R. A. Cherny et. al., (Neuron, 2001, 30, 665).
Further, concentration of ZnCl2 was altered from 0.01 mM to 3 mM, in order to examine the effect of ZnCl2 concentration (FIG. 2).
An amyloid β (1-42) membrane was prepared and placed on a detecting apparatus, as described in EXAMPLE 1. The changes in tension and elasticity of the membrane, by CuCl2 dissolved in the buffer solution, were examined (FIG. 3). […] It has been reported that Cu^2+, as well as Zn^2+, facilitates aggregation of amyloid β.

[2] = target: T2, α-synuclein (Homo sapiens, UniProt P37840); assay: changes in tension and elasticity of α-synuclein film measured with a mechanochemical sensor; format: biochemical; conditions: FIG. 4
T2 construct: purchased BIOMOL International LP
Description: as §1, §2
A α-synuclein (BIOMOL International LP, PA, USA) film was prepared and placed on a detecting apparatus, as described in EXAMPLE 1. […]

T1 sequence (P05067 672-713): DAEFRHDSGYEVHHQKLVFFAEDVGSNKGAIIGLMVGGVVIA

Structure (SMILES): [Cl][Cu][Cl] [CuCl2]
- change in tension and elasticity of the amyloid β (1-42) membrane by CuCl2 ([1]; CuCl2 dissolved in the buffer solution, FIG. 3): concentration-dependent change

Structure (SMILES): O=C(O)CN(CCN(CC(=O)O)CC(=O)O)CC(=O)O [EDTA]
- tension after EDTA, relative to the state prior to addition of ZnCl2 ([2]; α-synuclein film previously exposed to ZnCl2): restored by EDTA almost to the state prior to addition of ZnCl2
- tension and elasticity of the film after EDTA, relative to the state prior to addition of ZnCl2 ([1]; amyloid β (1-42) film previously exposed to ZnCl2, FIG. 1): restored
- tension after EDTA, relative to the state prior to addition of CuCl2 ([1]; amyloid β (1-42) membrane previously exposed to CuCl2, FIG. 3): restored by EDTA almost to the state prior to addition of CuCl2

Structure (SMILES): [Cl-].[Cl-].[Zn+2] [ZnCl2]
- change in tension and elasticity of the α-synuclein film by ZnCl2 ([2]; ZnCl2 dissolved in the buffer solution): concentration-dependent change
- change in elasticity with respect to ZnCl2 concentration ([1]; ZnCl2 0.01 mM to 3 mM, FIG. 2): concentration-dependent
- isotropic tension and compliance (the inverse of stiffness) of the amyloid β (1-42) film ([1]; ZnCl2 solution in 10 mM Hepes pH7.4, 0.15 M NaCl passed over the film, FIG. 1): remarkably increased

Reference: US20080003691A1, “Method of Detecting Conformational Change of an Amyloid Protein, a Method of Searching a Substance Having an Activity that Affects to Conformational Change of an Amyloid Protein, and Method of Searching a Therapeutic or Diagnostic Agent for Amyloid-Related Diseases” (Fuence Co., Ltd., priority 2004, published 2008)
